How the values were obtained:
Puccinia coronata = test: Controlling effect on Puccinia coronata by foliage application (pot experiment); format: in vivo; conditions: foliage spray on oat (cv. PC-38) seedlings, infected area after 1 day moist chamber and 8 days greenhouse at 20° C.
Summary of the method: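 Oat seedlings (cv. PC-38, 2–3 weeks old) were sprayed with compound in DMF diluted with spreader-containing water, then inoculated 24 h later with P. coronata spores diluted in talc. Plants were held 1 day in a moist chamber at 20° C, then 8 days in a greenhouse at 20° C; percent control came from infected leaf area.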

Sphaerotheca fuliginea = test: Controlling effect on Sphaerotheca fuliginea by foliage application (pot experiment); format: in vivo; conditions: foliage spray on cucumber (cv. TSUKUBASHIROIBO) first leaves, infected area after 10 days in greenhouse at 20° C.; for pest or weed control at 500 ppm: Podosphaera fuliginea, in Cucumis sativus, foliar, 240 h, read-out: Controlling effect on Sphaerotheca fuliginea by foliage application at 500 ppm (percent control)
Summary of the method: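 First leaves of cucumber seedlings, 2-3 weeks old, were sprayed with compound (DMF solution diluted in water with spreader). They were inoculated 24 h later with a Sphaerotheca fuliginea conidia spray and kept 10 days at 20° C in a greenhouse. Percent control was calculated from infected leaf area.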

Botrytis cinerea = test: Controlling effect on Botrytis cinerea by foliage application (pot experiment); format: in vivo; conditions: foliage spray on cucumber (cv. TSUKUBASHIROIBO) first leaves, mycelial disks, lesion diameter after 3 days in moist chamber at 20° C.
Procedure: The following Test Examples illustrate the effects of the fungicide of the present invention. (I. Controlling effects on various plant diseases by foliage application (pot experiment)) A test compound was dissolved in a small amount of N,N-dimethylformamide, and the solution was diluted to a given concentration with distilled water containing a spreader. Thus, a liquid sample to be tested was prepared. The liquid sample was sprayed to test plants, and 24 hours thereafter, pathogens were inoculated by the method described below. […] The seeds of cucumber ([…]) were sown in plastic cups (each 9 cm in diameter), followed by cultivation for 2 to 3 weeks. The test compound in the form of a solution or suspension was sprayed to the surface of their first leaves, and mycelial disks (4 mm φ) of Botrytis cinerea cultured on the potato sucrose agar medium were put on the leaf surfaces to inoculate. the cucumber seedlings with the pathogen. The plants were kept in a moist chamber at 20° C. for 3 days. The diameter of the lesions on the leaves was measured and the percent control was calculated.

[1] = system: Erysiphe graminis f. sp. tritici; test: Controlling effect on Erysiphe graminis f. sp. tritici by foliage application (pot experiment); format: in vivo; conditions: foliage spray on wheat (cv. NORIN No. 61) seedlings, infected area after 10 days in greenhouse at 20° C.
Summary of the method: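 Wheat seedlings (cv. NORIN No. 61, 2-3 weeks old) sprayed with compound in DMF diluted in water with spreader, then inoculated with conidia 24 hours later. Kept in greenhouse at 20 °C for 10 days; percent control calculated from infected leaf area.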

Pyricularia oryzae = format: in vivo; conditions: foliage spray on rice seedlings (cv. […]), number of lesions six days after the inoculation
[2] = system: Pseudoperonospora cubensis; test: Controlling effect on Pseudoperonospora cubensis by foliage application (pot experiment); format: in vivo; conditions: foliage spray on cucumber (var. TSUKUBASHIROIBO) first leaves, lesion area after 10 days in moist chamber at 20° C.
Summary of the method: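 Cucumber plants grown 2–3 weeks were sprayed on first leaves with compound (DMF solution diluted in water with spreader); 24 h later, Pseudoperonospora cubensis zoosporangia suspension dropped on leaves. Plants held in moist chamber at 20° C for 10 days; lesion area observed and percent control calculated.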

SMILES: OC(c1ccc(Cl)cc1)(c1cncnc1)c1ccccc1Cl (stereo not shown) [Fenarimol, reference compound]
- Controllng effect on Puccinia coronata by foliage application at 500 ppm (percent control) (Puccinia coronata): 97 percent control
- pest or weed control at 500 ppm (Sphaerotheca fuliginea): 97%
- Controlling effect on Botrytis cinerea by foliage application at 500 ppm (percent control) (Botrytis cinerea): 97 percent control
- pest or weed control at 500 ppm ([1]; Blumeria graminis, foliar, 240 h, read-out: Controlling effect on ErYsiphe graminis f. sp. tritici by foliage application at 500 ppm (percent control)): 97%

SMILES: CCON=C(c1ccccc1COc1ccccc1)n1ccnc1 [Compound No. 61]
- Controllng effect on Puccinia coronata by foliage application at 500 ppm (percent control) (Puccinia coronata): 97 percent control
- Controlling effect on Botrytis cinerea by foliage application at 500 ppm (percent control) (Botrytis cinerea): 100 percent control
- Controlling effect on PYricularia orYzae by foliage application at 500 ppm (percent control) (Pyricularia oryzae): 97 percent control
- Controlling effect on ErYsiphe graminis f. sp. tritici by foliage application at 500 ppm (percent control) [1]: 97 percent control

SMILES: CON=C(c1ccccc1COc1ccc(C)cc1)n1ccnc1 [Compound No. 15]
- Controllng effect on Puccinia coronata by foliage application at 500 ppm (percent control) (Puccinia coronata): 100 percent control
- Controlling effect on Sphaerotheca fuliginea by foliage application at 500 ppm (percent control) (Sphaerotheca fuliginea): 100 percent control
- Controlling effect on Botrytis cinerea by foliage application at 500 ppm (percent control) (Botrytis cinerea): 100 percent control
- Controlling effect on PYricularia orYzae by foliage application at 500 ppm (percent control) (Pyricularia oryzae): 90 percent control
- Controlling effect on ErYsiphe graminis f. sp. tritici by foliage application at 500 ppm (percent control) [1]: 97 percent control

SMILES: C=CCON=C(c1ccccc1COc1ccccc1)n1ccnc1 [Compound No. 81]
- Controllng effect on Puccinia coronata by foliage application at 500 ppm (percent control) (Puccinia coronata): 97 percent control
- Controlling effect on Botrytis cinerea by foliage application at 500 ppm (percent control) (Botrytis cinerea): 90 percent control
- Controlling effect on PYricularia orYzae by foliage application at 500 ppm (percent control) (Pyricularia oryzae): 97 percent control
- Controlling effect on ErYsiphe graminis f. sp. tritici by foliage application at 500 ppm (percent control) [1]: 97 percent control

SMILES: CON=C(c1ccccc1COc1c(C)cccc1C)n1ccnc1 [compound 40]
- Controllng effect on Puccinia coronata by foliage application at 500 ppm (percent control) (Puccinia coronata): 70 percent control
- Controlling effect on Sphaerotheca fuliginea by foliage application at 500 ppm (percent control) (Sphaerotheca fuliginea): 100 percent control
- Controlling effect on Botrytis cinerea by foliage application at 500 ppm (percent control) (Botrytis cinerea): 70 percent control
- Controlling effect on PYricularia orYzae by foliage application at 500 ppm (percent control) (Pyricularia oryzae): 90 percent control
- Controlling effect on ErYsiphe graminis f. sp. tritici by foliage application at 500 ppm (percent control) [1]: 97 percent control

SMILES: CON=C(c1ccccc1COc1ccccc1)n1ccnc1 [Compound No. 1]
- Controllng effect on Puccinia coronata by foliage application at 500 ppm (percent control) (Puccinia coronata): 97 percent control
- Controlling effect on Sphaerotheca fuliginea by foliage application at 500 ppm (percent control) (Sphaerotheca fuliginea): 100 percent control
- Controlling effect on Botrytis cinerea by foliage application at 500 ppm (percent control) (Botrytis cinerea): 100 percent control
- Controlling effect on PYricularia orYzae by foliage application at 500 ppm (percent control) (Pyricularia oryzae): 90 percent control
- Controlling effect on ErYsiphe graminis f. sp. tritici by foliage application at 500 ppm (percent control) [1]: 90 percent control

SMILES: CON=C(c1ccccc1COc1cccc(Cl)c1)n1cncc1C [compound 206]
- Controllng effect on Puccinia coronata by foliage application at 500 ppm (percent control) (Puccinia coronata): 97 percent control
- Controlling effect on Sphaerotheca fuliginea by foliage application at 500 ppm (percent control) (Sphaerotheca fuliginea): 100 percent control
- Controlling effect on Botrytis cinerea by foliage application at 500 ppm (percent control) (Botrytis cinerea): 97 percent control
- Controlling effect on PYricularia orYzae by foliage application at 500 ppm (percent control) (Pyricularia oryzae): 90 percent control
- Controlling effect on ErYsiphe graminis f. sp. tritici by foliage application at 500 ppm (percent control) [1]: 90 percent control

SMILES: CON=C(c1ccccc1COc1ccccc1Cl)n1cncc1C [compound 205]
- Controllng effect on Puccinia coronata by foliage application at 500 ppm (percent control) (Puccinia coronata): 70 percent control
- Controlling effect on Sphaerotheca fuliginea by foliage application at 500 ppm (percent control) (Sphaerotheca fuliginea): 100 percent control
- Controlling effect on Botrytis cinerea by foliage application at 500 ppm (percent control) (Botrytis cinerea): 70 percent control
- Controlling effect on PYricularia orYzae by foliage application at 500 ppm (percent control) (Pyricularia oryzae): 90 percent control

SMILES: CON=C(c1cc(C)no1)c1ccccc1COc1ncc(C(F)(F)F)cc1Cl [Compound No. 690, 2-(3-chloro-5-trifluoromethyl-2-pyridyloxymethyl)phenyl 3-methylisoxazol-5-yl ketone O-methyloxime]
- melting point: 77 to 79 °C

SMILES: CON=C(c1ncon1)c1ccccc1COc1ccc(Cl)cc1 [Compound No. 807, 2-(4-chlorophenoxymethyl)phenyl 1,2,4-oxadiazol-3-yl ketone O-methyloxime]
- melting point: 107 to 108 °C
- pest or weed control at 500 ppm (Sphaerotheca fuliginea): 100%

SMILES: CCON=C(c1ccccc1COc1ccccc1)n1cncc1C [compound 215]
- Controllng effect on Puccinia coronata by foliage application at 500 ppm (percent control) (Puccinia coronata): 90 percent control
- Controlling effect on Sphaerotheca fuliginea by foliage application at 500 ppm (percent control) (Sphaerotheca fuliginea): 100 percent control
- Controlling effect on Botrytis cinerea by foliage application at 500 ppm (percent control) (Botrytis cinerea): 97 percent control
- Controlling effect on PYricularia orYzae by foliage application at 500 ppm (percent control) (Pyricularia oryzae): 70 percent control
- Controlling effect on ErYsiphe graminis f. sp. tritici by foliage application at 500 ppm (percent control) [1]: 90 percent control

SMILES: CON=C(c1ccccc1COc1ccccc1C)n1ccnc1 [Compound No. 13]
- Controllng effect on Puccinia coronata by foliage application at 500 ppm (percent control) (Puccinia coronata): 97 percent control
- Controlling effect on Sphaerotheca fuliginea by foliage application at 500 ppm (percent control) (Sphaerotheca fuliginea): 100 percent control
- Controlling effect on Botrytis cinerea by foliage application at 500 ppm (percent control) (Botrytis cinerea): 70 percent control
- Controlling effect on PYricularia orYzae by foliage application at 500 ppm (percent control) (Pyricularia oryzae): 90 percent control
- Controlling effect on ErYsiphe graminis f. sp. tritici by foliage application at 500 ppm (percent control) [1]: 90 percent control

SMILES: CON=C(c1ccccc1COc1ccc(Cl)cc1)n1ccnc1 [Compound No. 7]
- Controllng effect on Puccinia coronata by foliage application at 500 ppm (percent control) (Puccinia coronata): 97 percent control
- Controlling effect on Sphaerotheca fuliginea by foliage application at 500 ppm (percent control) (Sphaerotheca fuliginea): 100 percent control
- Controlling effect on Botrytis cinerea by foliage application at 500 ppm (percent control) (Botrytis cinerea): 100 percent control
- Controlling effect on PYricularia orYzae by foliage application at 500 ppm (percent control) (Pyricularia oryzae): 97 percent control
- Controlling effect on ErYsiphe graminis f. sp. tritici by foliage application at 500 ppm (percent control) [1]: 100 percent control

SMILES: CON=C(c1ccccc1COc1ccccc1Cl)n1ccnc1 [Compound No. 5]
- Controllng effect on Puccinia coronata by foliage application at 500 ppm (percent control) (Puccinia coronata): 90 percent control
- Controlling effect on Sphaerotheca fuliginea by foliage application at 500 ppm (percent control) (Sphaerotheca fuliginea): 100 percent control
- Controlling effect on Botrytis cinerea by foliage application at 500 ppm (percent control) (Botrytis cinerea): 70 percent control
- Controlling effect on PYricularia orYzae by foliage application at 500 ppm (percent control) (Pyricularia oryzae): 97 percent control
- Controlling effect on ErYsiphe graminis f. sp. tritici by foliage application at 500 ppm (percent control) [1]: 90 percent control

SMILES: CON=C(c1ccccc1COc1ccc(Cl)cc1)n1cncc1C [compound 207]
- Controllng effect on Puccinia coronata by foliage application at 500 ppm (percent control) (Puccinia coronata): 97 percent control
- Controlling effect on Sphaerotheca fuliginea by foliage application at 500 ppm (percent control) (Sphaerotheca fuliginea): 100 percent control
- Controlling effect on Botrytis cinerea by foliage application at 500 ppm (percent control) (Botrytis cinerea): 100 percent control
- Controlling effect on PYricularia orYzae by foliage application at 500 ppm (percent control) (Pyricularia oryzae): 90 percent control
- Controlling effect on ErYsiphe graminis f. sp. tritici by foliage application at 500 ppm (percent control) [1]: 100 percent control

SMILES: CON=C(c1ccccc1COc1ccccc1)n1cncc1C [compound 201]
- Controllng effect on Puccinia coronata by foliage application at 500 ppm (percent control) (Puccinia coronata): 90 percent control
- Controlling effect on Sphaerotheca fuliginea by foliage application at 500 ppm (percent control) (Sphaerotheca fuliginea): 100 percent control
- Controlling effect on Botrytis cinerea by foliage application at 500 ppm (percent control) (Botrytis cinerea): 70 percent control
- Controlling effect on PYricularia orYzae by foliage application at 500 ppm (percent control) (Pyricularia oryzae): 90 percent control
- Controlling effect on ErYsiphe graminis f. sp. tritici by foliage application at 500 ppm (percent control) [1]: 90 percent control

SMILES: CON=C(c1ccccc1COc1ccc(Cl)c(Cl)c1)c1nccn1C (single isomer, unassigned) [132A]
- Controlling effect on Sphaerotheca fuliginea by foliage application at 500 ppm (percent control) (Sphaerotheca fuliginea): 100 percent control
- Controlling effect on Botrytis cinerea by foliage application at 500 ppm (percent control) (Botrytis cinerea): 70 percent control
- Controlling effect on PYricularia orYzae by foliage application at 500 ppm (percent control) (Pyricularia oryzae): 70 percent control
- Controlling effect on ErYsiphe graminis f. sp. tritici by foliage application at 500 ppm (percent control) [1]: 70 percent control
- Controlling effect on Pseudoperonospora cubensis by foliage application at 500 ppm (percent control) [2]: 100 percent control

SMILES: CON=C(c1nnco1)c1ccccc1COc1ccc(Cl)c(Cl)c1 [compound 732]
- Controlling effect on Sphaerotheca fuliginea by foliage application at 500 ppm (percent control) (Sphaerotheca fuliginea): 100 percent control
- Controlling effect on Botrytis cinerea by foliage application at 500 ppm (percent control) (Botrytis cinerea): 70 percent control
- Controlling effect on PYricularia orYzae by foliage application at 500 ppm (percent control) (Pyricularia oryzae): 70 percent control
- Controlling effect on ErYsiphe graminis f. sp. tritici by foliage application at 500 ppm (percent control) [1]: 70 percent control
- Controlling effect on Pseudoperonospora cubensis by foliage application at 500 ppm (percent control) [2]: 100 percent control

From US6362212B1, “Oxime derivative and bactericide containing the same as active ingredient” (Shionogi & Company, Ltd., priority 1994, dated 2002)
